Measured values from PubChem BioAssay (NCI).
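GI50 marks 50% less growth. TGI is the concentration that stops growth completely.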

Columns and labels:
Assay in all cases: NCI tumour cell line growth inhibition, 384-well format
786-0 renal = tested on: 786-0 renal
A498 renal = tested on: A498 renal
A549 NSCLC = tested on: A549 NSCLC
ACHN renal = tested on: ACHN renal
BT-549 breast = tested on: BT-549 breast
CAKI-1 renal = tested on: CAKI-1 renal
COLO 205 colon = tested on: COLO 205 colon
DU-145 prostate = tested on: DU-145 prostate
EKVX NSCLC = tested on: EKVX NSCLC
HCT-116 colon = tested on: HCT-116 colon
HCT-15 colon = tested on: HCT-15 colon
HL-60(TB) leukemia = tested on: HL-60(TB) leukemia
HOP-62 NSCLC = tested on: HOP-62 NSCLC
HOP-92 NSCLC = tested on: HOP-92 NSCLC
HS 578T breast = tested on: HS 578T breast
HT29 colon = tested on: HT29 colon
IGROV1 ovarian = tested on: IGROV1 ovarian
K-562 leukemia = tested on: K-562 leukemia
KM12 colon = tested on: KM12 colon
M14 melanoma = tested on: M14 melanoma
MALME-3M melanoma = tested on: MALME-3M melanoma
MCF7 breast = tested on: MCF7 breast
MDA-MB-231 breast = tested on: MDA-MB-231 breast
MDA-MB-435 melanoma = tested on: MDA-MB-435 melanoma
MDA-MB-468 breast = tested on: MDA-MB-468 breast
MOLT-4 leukemia = tested on: MOLT-4 leukemia
NCI-H226 lung = tested on: NCI-H226 lung
NCI-H23 lung = tested on: NCI-H23 lung
NCI-H322M lung = tested on: NCI-H322M lung
NCI-H460 NSCLC = tested on: NCI-H460 NSCLC
NCI-H522 lung = tested on: NCI-H522 lung
OVCAR-3 ovarian = tested on: OVCAR-3 ovarian
OVCAR-4 ovarian = tested on: OVCAR-4 ovarian
OVCAR-5 ovarian = tested on: OVCAR-5 ovarian
OVCAR-8 ovarian = tested on: OVCAR-8 ovarian
PC-3 prostate = tested on: PC-3 prostate
RXF 393 renal = tested on: RXF 393 renal
SF-268 CNS = tested on: SF-268 CNS
SF-295 CNS = tested on: SF-295 CNS
SF-539 CNS = tested on: SF-539 CNS
SK-MEL-2 melanoma = tested on: SK-MEL-2 melanoma
SK-MEL-28 melanoma = tested on: SK-MEL-28 melanoma
SK-MEL-5 melanoma = tested on: SK-MEL-5 melanoma
SK-OV-3 ovarian = tested on: SK-OV-3 ovarian
SN12C renal = tested on: SN12C renal
SNB-19 CNS = tested on: SNB-19 CNS
SNB-75 CNS = tested on: SNB-75 CNS
SR leukemia = tested on: SR leukemia
SW-620 colon = tested on: SW-620 colon
T-47D breast = tested on: T-47D breast
TK-10 renal = tested on: TK-10 renal
U251 glioblastoma = tested on: U251 glioblastoma
UACC-257 melanoma = tested on: UACC-257 melanoma
UACC-62 melanoma = tested on: UACC-62 melanoma
UO-31 renal = tested on: UO-31 renal

How did the GI50 ([…]-0 renal) turn out when `COc1cc(F)c(F)c(Nc2ccc(I)cc2F)c1NS(=O)(=O)C1(CC(O)CO)CC1` (stereo not given) was run?
The GI50 was 16.9 µM.

What about the TGI (786-0 renal) of the same molecule?
Its TGI is 31.7 µM.

What about the GI50 (A498 renal) of the same molecule?
The GI50 was 16.1 µM.

What about the TGI (A498 renal) of the same molecule?
The TGI was 31 µM.

And the GI50 (A549 NSCLC)?
Its GI50 is 20 µM.

What about the TGI (A549 NSCLC) of the same molecule?
Its TGI is 55 µM.

What about the GI50 (ACHN renal) of the same molecule?
Its GI50 is 17.1 µM.

What about the TGI (ACHN renal) of the same molecule?
The TGI was 33.9 µM.

And the GI50 (BT-549 breast)?
The GI50 was 14.1 µM.

And the TGI (BT-549 breast)?
The TGI was 27.2 µM.

What about the GI50 (CAKI-1 renal) of the same molecule?
The GI50 was 16 µM.

What about the TGI (CAKI-1 renal) of the same molecule?
Its TGI is 70.1 µM.

And the GI50 (COLO 205 colon)?
Its GI50 is 6.9 µM.

And the TGI (COLO 205 colon)?
Its TGI is 24.1 µM.

And the GI50 (DU-145 prostate)?
Its GI50 is 18.1 µM.

And the TGI (DU-145 prostate)?
The TGI was 37.4 µM.

And the GI50 (EKVX NSCLC)?
Its GI50 is 19.5 µM.

And the TGI (EKVX NSCLC)?
The TGI was 44.4 µM.

What about the GI50 (HCT-116 colon) of the same molecule?
The GI50 was 14.7 µM.

What about the TGI (HCT-116 colon) of the same molecule?
The TGI was 28.7 µM.

And the GI50 (HCT-15 colon)?
The GI50 was 20.5 µM.

And the TGI (HCT-15 colon)?
The TGI was 48.9 µM.

And the GI50 (HL-60(TB) leukemia)?
Its GI50 is 6.51 µM.

And the TGI (HL-60(TB) leukemia)?
Its TGI is 19.4 µM.

And the GI50 (HOP-62 NSCLC)?
The GI50 was 14.2 µM.

What about the TGI (HOP-62 NSCLC) of the same molecule?
The TGI was 29.1 µM.

What about the GI50 (HOP-92 NSCLC) of the same molecule?
The GI50 was 14.7 µM.

And the TGI (HOP-92 NSCLC)?
Its TGI is 28.6 µM.

And the GI50 (HS 578T breast)?
Its GI50 is 14.8 µM.

What about the TGI (HS 578T breast) of the same molecule?
The TGI was 28.1 µM.

What about the GI50 (HT29 colon) of the same molecule?
Its GI50 is 10.4 µM.

And the TGI (HT29 colon)?
Its TGI is 22.5 µM.

What about the GI50 (IGROV1 ovarian) of the same molecule?
Its GI50 is 14.5 µM.

And the TGI (IGROV1 ovarian)?
Its TGI is 31.5 µM.

What about the GI50 (K-562 leukemia) of the same molecule?
Its GI50 is 14.3 µM.

What about the TGI (K-562 leukemia) of the same molecule?
Its TGI is 27.7 µM.

What about the GI50 (KM12 colon) of the same molecule?
Its GI50 is 16.1 µM.

What about the TGI (KM12 colon) of the same molecule?
Its TGI is 30 µM.

And the GI50 (M14 melanoma)?
Its GI50 is 3.22 µM.

And the TGI (M14 melanoma)?
The TGI was 12.5 µM.

What about the GI50 (MALME-3M melanoma) of the same molecule?
The GI50 was 2.12 µM.

What about the TGI (MALME-3M melanoma) of the same molecule?
Its TGI is 6.94 µM.

And the GI50 (MCF7 breast)?
Its GI50 is 14.8 µM.

And the TGI (MCF7 breast)?
The TGI was 30.4 µM.

What about the GI50 (MDA-MB-231 breast) of the same molecule?
Its GI50 is 13.9 µM.

And the TGI (MDA-MB-231 breast)?
Its TGI is 36.3 µM.

And the GI50 (MDA-MB-435 melanoma)?
Its GI50 is 6.29 µM.

What about the TGI (MDA-MB-435 melanoma) of the same molecule?
Its TGI is 20.1 µM.

What about the GI50 (MDA-MB-468 breast) of the same molecule?
Its GI50 is 13.8 µM.

What about the TGI (MDA-MB-468 breast) of the same molecule?
The TGI was 32.6 µM.

And the GI50 (MOLT-4 leukemia)?
Its GI50 is 14.1 µM.

What about the TGI (MOLT-4 leukemia) of the same molecule?
The TGI was 27.1 µM.

What about the GI50 (NCI-H226 lung) of the same molecule?
The GI50 was 14.6 µM.

And the TGI (NCI-H226 lung)?
The TGI was 31.9 µM.

What about the GI50 (NCI-H23 lung) of the same molecule?
Its GI50 is 13.7 µM.

And the TGI (NCI-H23 lung)?
Its TGI is 32.4 µM.

What about the GI50 (NCI-H322M lung) of the same molecule?
Its GI50 is 26 µM.

And the TGI (NCI-H322M lung)?
The TGI was 59.3 µM.

What about the GI50 (NCI-H460 NSCLC) of the same molecule?
The GI50 was 16.2 µM.

What about the TGI (NCI-H460 NSCLC) of the same molecule?
The TGI was 30.3 µM.

And the GI50 (NCI-H522 lung)?
The GI50 was 15.4 µM.

And the TGI (NCI-H522 lung)?
The TGI was 29.4 µM.

What about the GI50 (OVCAR-3 ovarian) of the same molecule?
Its GI50 is 13.9 µM.

And the TGI (OVCAR-3 ovarian)?
The TGI was 27.1 µM.

And the GI50 (OVCAR-4 ovarian)?
The GI50 was 19.8 µM.

What about the TGI (OVCAR-4 ovarian) of the same molecule?
The TGI was 70 µM.

And the GI50 (OVCAR-5 ovarian)?
Its GI50 is 18.2 µM.

And the TGI (OVCAR-5 ovarian)?
Its TGI is 41 µM.

And the GI50 (OVCAR-8 ovarian)?
The GI50 was 23.1 µM.

And the TGI (OVCAR-8 ovarian)?
The TGI was 58.3 µM.

What about the GI50 (PC-3 prostate) of the same molecule?
Its GI50 is 16.3 µM.

And the TGI (PC-3 prostate)?
The TGI was 30.3 µM.

What about the GI50 (RXF 393 renal) of the same molecule?
Its GI50 is 13.4 µM.

What about the TGI (RXF 393 renal) of the same molecule?
Its TGI is 26.9 µM.

What about the GI50 (SF-268 CNS) of the same molecule?
The GI50 was 19.7 µM.

And the TGI (SF-268 CNS)?
The TGI was 39.5 µM.

And the GI50 (SF-295 CNS)?
Its GI50 is 16.1 µM.

And the TGI (SF-295 CNS)?
The TGI was 30.4 µM.

And the GI50 (SF-539 CNS)?
The GI50 was 15 µM.

What about the TGI (SF-539 CNS) of the same molecule?
Its TGI is 29.5 µM.

What about the GI50 (SK-MEL-2 melanoma) of the same molecule?
The GI50 was 12.9 µM.

What about the TGI (SK-MEL-2 melanoma) of the same molecule?
Its TGI is 25.6 µM.

What about the GI50 (SK-MEL-28 melanoma) of the same molecule?
The GI50 was 3.18 µM.

And the TGI (SK-MEL-28 melanoma)?
The TGI was 13.3 µM.

What about the GI50 (SK-MEL-5 melanoma) of the same molecule?
Its GI50 is 7.62 µM.

And the TGI (SK-MEL-5 melanoma)?
The TGI was 20.5 µM.

What about the GI50 (SK-OV-3 ovarian) of the same molecule?
The GI50 was 21.8 µM.

And the TGI (SK-OV-3 ovarian)?
The TGI was 56.9 µM.

What about the GI50 (SN12C renal) of the same molecule?
Its GI50 is 16.9 µM.

And the TGI (SN12C renal)?
The TGI was 35.3 µM.

And the GI50 (SNB-19 CNS)?
Its GI50 is 22.3 µM.

What about the TGI (SNB-19 CNS) of the same molecule?
The TGI was 62.9 µM.

What about the GI50 (SNB-75 CNS) of the same molecule?
Its GI50 is 15 µM.

What about the TGI (SNB-75 CNS) of the same molecule?
The TGI was 31.4 µM.

And the GI50 (SR leukemia)?
The GI50 was 14.5 µM.

What about the TGI (SR leukemia) of the same molecule?
The TGI was 27.6 µM.

What about the GI50 (SW-620 colon) of the same molecule?
Its GI50 is 15.6 µM.

And the TGI (SW-620 colon)?
Its TGI is 41.3 µM.

And the GI50 (T-47D breast)?
Its GI50 is 21.2 µM.

What about the TGI (T-47D breast) of the same molecule?
Its TGI is 81.6 µM.

What about the GI50 (TK-10 renal) of the same molecule?
Its GI50 is 20.6 µM.

What about the TGI (TK-10 renal) of the same molecule?
Its TGI is 53.8 µM.

What about the GI50 (U251 glioblastoma) of the same molecule?
The GI50 was 16.6 µM.

And the TGI (U251 glioblastoma)?
Its TGI is 34.3 µM.

And the GI50 (UACC-257 melanoma)?
The GI50 was 4.81 µM.

And the TGI (UACC-257 melanoma)?
The TGI was 18.1 µM.

What about the GI50 (UACC-62 melanoma) of the same molecule?
The GI50 was 3.82 µM.

What about the TGI (UACC-62 melanoma) of the same molecule?
The TGI was 14 µM.

And the GI50 (UO-31 renal)?
Its GI50 is 13.4 µM.

And the TGI (UO-31 renal)?
The TGI was 32.2 µM.
